{"source": "ChEMBL document CHEMBL1201862", "about": "“PubChem BioAssay data set” (2004)", "key": {"Protein skinhead-1": {"biological_target": "T1, Protein skinhead-1 (Caenorhabditis elegans, UniProt P34707)", "T1 sequence (P34707 whole entry)": "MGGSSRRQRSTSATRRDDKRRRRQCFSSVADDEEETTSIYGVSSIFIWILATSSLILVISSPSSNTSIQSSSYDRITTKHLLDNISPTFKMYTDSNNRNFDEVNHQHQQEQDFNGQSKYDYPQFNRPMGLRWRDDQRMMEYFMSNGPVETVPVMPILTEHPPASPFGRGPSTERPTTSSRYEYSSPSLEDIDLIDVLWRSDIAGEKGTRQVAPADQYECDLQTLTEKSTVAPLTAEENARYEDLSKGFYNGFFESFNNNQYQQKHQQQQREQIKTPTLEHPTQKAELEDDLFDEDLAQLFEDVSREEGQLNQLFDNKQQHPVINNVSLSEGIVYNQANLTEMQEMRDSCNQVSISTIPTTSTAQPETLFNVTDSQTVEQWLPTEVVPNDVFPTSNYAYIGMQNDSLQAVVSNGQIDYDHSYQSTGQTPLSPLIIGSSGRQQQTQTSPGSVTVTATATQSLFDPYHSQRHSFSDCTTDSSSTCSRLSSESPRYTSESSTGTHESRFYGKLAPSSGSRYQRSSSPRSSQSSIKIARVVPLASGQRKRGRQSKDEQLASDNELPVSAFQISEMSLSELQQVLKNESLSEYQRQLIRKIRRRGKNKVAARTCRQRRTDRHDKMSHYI", "format": "functional"}, "HEK293 [1]": {"test_system": "HEK293", "assay": "cells", "conditions": "Homo sapiens"}, "HEK293 [2]": {"test_system": "HEK293", "assay": "cells", "conditions": "Homo sapiens", "remark": "listed apart in the source"}, "[3]": {"assay": "Fluorescence-based cell-based high throughput dose response assay for inhibitors of the interaction of nucleotide-binding oligomerization domain containing 2 (NOD2) and the receptor-interacting serine-threonine kinase 2 (RIPK2).", "format": "functional", "conditions": "Homo sapiens"}, "CHO": {"test_system": "CHO", "assay": "cytotoxicity in TLR9-MyD88 CHO cells, dose response, cytotoxicity control for TLR9-MyD88 binding inhibitor project, cell-based, luminescence (AID 588339);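 also: compound exposure lasted 48 hours before viability readout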", "format": "functional, hamster", "conditions": "Cricetulus griseus"}, "[4]": {"assay": "Counterscreen for AddAB inhibitors: absorbance-based bacterial cell-based high throughput dose response assay for inhibitors of bacterial viability. [Related pubchem assays (depositor defined):AID435030, AID449728, AID449731, AID488942, AID488955, AID488956]", "format": "functional"}, "[5]": {"assay": "Luminescence Cell-Based Dose Retest to Confirm Inhibitors of Cancer Stem Cells. [Related pubchem assays (depositor defined):AID2717, AID2721]", "format": "functional", "conditions": "Homo sapiens"}, "[6]": {"assay": "inhibitors of intracellular T. cruzi replication, confirmation, NIH3T3 host cells, beta-gal luminescence (AID 2044);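 also: luminescent beta-galactosidase reporter signal from transgenic T. cruzi replicating inside host cells; inhibitors lower the luminescence signal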", "format": "functional, cell-based"}, "[7]": {"assay": "inhibitors of clade B AD8 Env fusion, dose response, cell-based, cherry-pick (AID 652062);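 also: potency is for inhibitors of fusion seen as a drop in luminescence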", "format": "functional"}, "[8]": {"assay": "ZM109 Env clade C HIV-1 fusion inhibitors, dose response, HeLa effector, CEM target cells, luciferase, cherry-pick (AID 652058)", "format": "functional, cell-based"}, "[9]": {"assay": "CEM21 lymphoblast cell cytotoxicity, dose response, cytotoxicity control for viral fusion inhibitor project, CellTiter-Glo luminescence, cherry-picked (AID 652042);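 also: potency for signal decrease meaning cytotoxicity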", "format": "functional, cell-based"}, "[10]": {"assay": "off-target signal loss in HeLa-CEM21 co-culture – HeLa F-luc CTL cells, cherry-picked, counter-screen for HIV-1 Env fusion inhibitor project, dose response (AID 652040);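 also: potency for signal decrease marking cytotoxic or nonspecific inhibition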", "format": "functional, cell-based"}, "[11]": {"assay": "inhibitors of HIV Env-driven cell fusion, dose response, cherry-pick (AID 652057)", "format": "functional, cell-based"}, "[12]": {"assay": "cytotoxicity toward NIH3T3 fibroblasts, dose response, counter-screen, cell-based, ATP luminescence, mouse fibroblasts (AID 2010);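 also: cells exposed to compound for about 90 hours before reading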", "format": "functional"}, "Cytochrome P450 1A2": {"biological_target": "T2, Cytochrome P450 1A2 (Homo sapiens, UniProt P05177)", "T2 sequence (P05177 whole entry)": "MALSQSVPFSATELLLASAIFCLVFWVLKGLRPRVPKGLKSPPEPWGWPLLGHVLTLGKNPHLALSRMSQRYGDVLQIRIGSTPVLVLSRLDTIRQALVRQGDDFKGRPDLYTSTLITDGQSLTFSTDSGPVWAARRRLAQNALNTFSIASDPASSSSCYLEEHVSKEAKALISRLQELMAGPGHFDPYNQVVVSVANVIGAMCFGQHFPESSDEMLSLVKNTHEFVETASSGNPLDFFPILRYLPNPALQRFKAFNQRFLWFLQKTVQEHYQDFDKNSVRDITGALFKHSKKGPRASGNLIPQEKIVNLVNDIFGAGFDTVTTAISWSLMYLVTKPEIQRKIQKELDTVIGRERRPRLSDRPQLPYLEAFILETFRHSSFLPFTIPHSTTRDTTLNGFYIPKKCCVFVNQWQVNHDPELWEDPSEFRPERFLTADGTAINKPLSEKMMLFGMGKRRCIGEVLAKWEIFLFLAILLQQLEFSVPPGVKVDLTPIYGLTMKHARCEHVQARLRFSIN"}, "Cytochrome P450 3A4": {"biological_target": "Cytochrome P450 3A4 (Homo sapiens, UniProt P08684)", "sequence (P08684 whole entry)": "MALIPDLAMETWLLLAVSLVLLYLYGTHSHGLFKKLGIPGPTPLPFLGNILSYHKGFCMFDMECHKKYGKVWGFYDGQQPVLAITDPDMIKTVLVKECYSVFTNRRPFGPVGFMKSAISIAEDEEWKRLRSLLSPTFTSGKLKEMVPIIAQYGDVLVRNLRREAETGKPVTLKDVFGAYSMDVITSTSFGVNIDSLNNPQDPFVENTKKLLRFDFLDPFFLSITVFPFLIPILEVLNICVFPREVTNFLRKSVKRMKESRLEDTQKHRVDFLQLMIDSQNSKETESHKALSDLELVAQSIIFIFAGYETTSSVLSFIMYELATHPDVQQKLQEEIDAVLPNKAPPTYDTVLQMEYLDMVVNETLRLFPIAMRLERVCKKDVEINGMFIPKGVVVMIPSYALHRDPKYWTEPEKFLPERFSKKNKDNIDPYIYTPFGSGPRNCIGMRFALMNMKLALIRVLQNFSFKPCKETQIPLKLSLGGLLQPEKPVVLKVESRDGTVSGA"}, "Cytochrome P450 2C9": {"biological_target": "Cytochrome P450 2C9 (Homo sapiens, UniProt P11712)", "sequence (P11712 whole entry)": "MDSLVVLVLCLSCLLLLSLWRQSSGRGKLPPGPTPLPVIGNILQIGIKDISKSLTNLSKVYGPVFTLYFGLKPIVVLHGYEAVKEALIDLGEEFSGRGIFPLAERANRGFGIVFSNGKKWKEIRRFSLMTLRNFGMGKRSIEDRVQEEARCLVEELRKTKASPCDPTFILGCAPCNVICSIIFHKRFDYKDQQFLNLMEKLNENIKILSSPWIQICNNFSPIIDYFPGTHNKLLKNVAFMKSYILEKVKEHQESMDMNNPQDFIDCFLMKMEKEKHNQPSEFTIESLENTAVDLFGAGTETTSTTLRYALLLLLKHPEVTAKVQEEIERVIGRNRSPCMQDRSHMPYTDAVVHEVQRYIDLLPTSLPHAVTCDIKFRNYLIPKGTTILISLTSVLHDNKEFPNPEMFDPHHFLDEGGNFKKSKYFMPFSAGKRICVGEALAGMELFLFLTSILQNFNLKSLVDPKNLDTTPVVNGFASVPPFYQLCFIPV"}, "[13]": {"biological_target": "Nuclear receptor subfamily 0 group B member 1 (Homo sapiens, UniProt P51843)", "sequence (P51843 whole entry)": "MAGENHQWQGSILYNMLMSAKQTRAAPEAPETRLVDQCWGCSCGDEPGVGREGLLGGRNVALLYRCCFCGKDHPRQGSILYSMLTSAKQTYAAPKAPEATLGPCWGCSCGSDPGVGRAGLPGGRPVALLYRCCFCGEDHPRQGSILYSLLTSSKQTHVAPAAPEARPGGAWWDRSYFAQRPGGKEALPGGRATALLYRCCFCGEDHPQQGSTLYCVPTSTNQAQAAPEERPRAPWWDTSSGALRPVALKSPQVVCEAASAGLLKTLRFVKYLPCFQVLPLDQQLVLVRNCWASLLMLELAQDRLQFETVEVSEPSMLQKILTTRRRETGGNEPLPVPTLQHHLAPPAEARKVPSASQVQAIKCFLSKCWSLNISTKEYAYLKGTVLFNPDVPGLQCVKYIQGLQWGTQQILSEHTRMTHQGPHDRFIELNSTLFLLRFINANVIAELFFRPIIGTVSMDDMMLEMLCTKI", "assay": "Luminescence-based cell-based high throughput dose response assay for inhibitors of the orphan nuclear receptor subfamily 0, group B, member 1 (DAX1; NR0B1). [Related pubchem assays (depositor defined):AID504766, AID504790]", "format": "functional"}, "HEK293 [14]": {"test_system": "HEK293", "assay": "cells", "format": "functional, cell-based", "conditions": "Homo sapiens"}, "[15]": {"assay": "Luminescence Cell-Based Dose Response HTS to Identify Activators of Luciferase Translation or Activity in H4 […] Cells. [Related pubchem assays: 1829 (Project Summary), 1814 (Primary HTS)]", "format": "functional"}, "[16]": {"assay": "Luminescence Cell-Based Dose Confirmation HTS to Identify Activators of 5'UTR Stem-Loop Driven Alpha-Synuclein mRNA Translation in H4 Neuroglioblastoma Cells. [Related pubchem assays: 1829 (Project Summary), 1814 (Primary HTS)]", "format": "functional"}, "H4": {"test_system": "H4", "assay": "Luminescence Cell-Based Dose Response HTS to Identify Activators of 5'UTR Stem-Loop Driven Prion Protein mRNA Translation in H4 Neuroglioblastoma Cells. [Related pubchem assays: 1829 (Project Summary), 1814 (Primary HTS)]", "format": "functional", "conditions": "Homo sapiens"}, "[17]": {"biological_target": "Beta-2 adrenergic receptor (Homo sapiens, UniProt P07550)", "sequence (P07550 whole entry)": "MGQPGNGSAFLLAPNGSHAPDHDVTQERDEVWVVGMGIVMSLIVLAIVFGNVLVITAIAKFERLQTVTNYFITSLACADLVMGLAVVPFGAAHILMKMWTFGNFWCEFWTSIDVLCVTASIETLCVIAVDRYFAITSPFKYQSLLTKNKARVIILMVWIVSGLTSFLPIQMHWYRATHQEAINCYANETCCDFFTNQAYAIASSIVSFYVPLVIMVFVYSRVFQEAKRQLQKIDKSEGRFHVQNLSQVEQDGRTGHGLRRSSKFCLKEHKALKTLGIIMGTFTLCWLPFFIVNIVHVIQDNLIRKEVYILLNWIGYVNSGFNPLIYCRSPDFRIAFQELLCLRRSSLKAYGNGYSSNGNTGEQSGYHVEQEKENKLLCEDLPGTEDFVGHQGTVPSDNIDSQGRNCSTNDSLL", "assay": "beta2AR agonists driving receptor internalization, dose response, cell-based, FAP fluorogen, flow cytometry, cherry pick 1 (AID 588763)", "format": "functional"}, "[18]": {"assay": "growth suppression of beta-catenin-knockout colon cells, dose response, cell-based, HCT116, human colon tumor (AID 1045);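 also: HCT116 colon tumor cells with beta catenin knocked out; cells exposed to compound for 60 hours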", "format": "functional"}, "[19]": {"assay": "growth suppression of PTEN-null colon cells, dose response, cell-based, HCT116 PTEN knockout (AID 1047);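 also: HCT116 colon tumor cells with PTEN knocked out; cells exposed to compound for 60 hours before readout; potency for loss of cell viability measured by luminescence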", "format": "functional"}, "Vero [20]": {"test_system": "Vero", "assay": "cells", "format": "functional, cell-based", "conditions": "Chlorocebus sabaeus"}, "[21]": {"biological_target": "T3, Microphthalmia-associated transcription factor (Homo sapiens, UniProt O75030)", "T3 sequence (O75030 whole entry)": "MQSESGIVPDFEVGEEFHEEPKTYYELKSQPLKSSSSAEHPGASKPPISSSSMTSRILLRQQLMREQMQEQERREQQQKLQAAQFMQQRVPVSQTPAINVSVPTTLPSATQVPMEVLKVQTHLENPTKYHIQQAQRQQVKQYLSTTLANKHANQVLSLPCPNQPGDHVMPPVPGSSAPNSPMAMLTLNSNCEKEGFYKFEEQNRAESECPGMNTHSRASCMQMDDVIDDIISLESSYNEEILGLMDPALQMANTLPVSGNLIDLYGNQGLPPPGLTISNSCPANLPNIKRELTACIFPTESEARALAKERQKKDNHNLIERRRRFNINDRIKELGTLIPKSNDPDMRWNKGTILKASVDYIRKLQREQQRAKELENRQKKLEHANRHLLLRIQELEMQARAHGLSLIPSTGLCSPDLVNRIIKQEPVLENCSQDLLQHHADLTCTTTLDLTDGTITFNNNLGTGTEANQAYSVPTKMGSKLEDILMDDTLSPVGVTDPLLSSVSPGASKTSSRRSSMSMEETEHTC", "assay": "TRPM1 promoter luciferase signal decrease, dose response, MITF inhibitor project, cell-based, SK-MEL-5, cherry-picked, set 3 (AID 493073)", "format": "functional"}, "Vero [22]": {"test_system": "Vero", "assay": "cells", "format": "functional", "conditions": "Chlorocebus sabaeus"}, "Keap1/Nrf2": {"biological_target": "Keap1/Nrf2 (Homo sapiens, UniProt Q14145)", "sequence (Q16236 whole entry)": "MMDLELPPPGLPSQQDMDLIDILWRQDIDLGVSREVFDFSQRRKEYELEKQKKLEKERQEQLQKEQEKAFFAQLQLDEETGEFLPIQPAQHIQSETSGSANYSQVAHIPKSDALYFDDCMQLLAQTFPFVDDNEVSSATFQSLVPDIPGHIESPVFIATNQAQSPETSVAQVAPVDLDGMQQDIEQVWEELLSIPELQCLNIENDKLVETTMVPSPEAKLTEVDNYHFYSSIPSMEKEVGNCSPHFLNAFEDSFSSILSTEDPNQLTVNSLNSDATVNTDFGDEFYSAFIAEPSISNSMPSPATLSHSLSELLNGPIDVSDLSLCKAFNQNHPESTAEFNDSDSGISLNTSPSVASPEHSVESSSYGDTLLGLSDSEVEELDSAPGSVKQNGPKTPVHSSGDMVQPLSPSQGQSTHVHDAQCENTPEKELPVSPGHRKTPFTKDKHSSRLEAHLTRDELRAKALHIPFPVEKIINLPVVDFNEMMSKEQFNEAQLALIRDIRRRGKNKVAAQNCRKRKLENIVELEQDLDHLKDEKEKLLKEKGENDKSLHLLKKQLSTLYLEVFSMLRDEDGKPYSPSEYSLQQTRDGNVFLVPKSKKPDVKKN", "sequence (Q14145 whole entry)": "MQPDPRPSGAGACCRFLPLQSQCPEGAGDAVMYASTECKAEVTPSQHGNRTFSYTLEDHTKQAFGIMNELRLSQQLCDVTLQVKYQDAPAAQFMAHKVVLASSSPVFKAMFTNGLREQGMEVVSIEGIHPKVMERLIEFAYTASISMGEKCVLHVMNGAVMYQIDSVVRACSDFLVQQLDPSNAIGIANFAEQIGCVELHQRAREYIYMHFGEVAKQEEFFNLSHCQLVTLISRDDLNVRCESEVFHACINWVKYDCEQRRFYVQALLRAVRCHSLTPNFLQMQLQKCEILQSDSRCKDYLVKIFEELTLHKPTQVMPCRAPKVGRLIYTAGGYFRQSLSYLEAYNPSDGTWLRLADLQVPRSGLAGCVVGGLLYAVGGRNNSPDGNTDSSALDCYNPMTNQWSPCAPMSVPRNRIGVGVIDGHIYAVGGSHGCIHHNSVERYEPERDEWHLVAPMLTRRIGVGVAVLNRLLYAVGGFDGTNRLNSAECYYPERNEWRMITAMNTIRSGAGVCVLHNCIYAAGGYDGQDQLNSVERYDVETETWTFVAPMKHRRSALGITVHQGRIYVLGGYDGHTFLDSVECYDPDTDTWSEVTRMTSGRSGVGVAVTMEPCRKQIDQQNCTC", "assay": "Keap1-Nrf2 protein-protein interaction inhibitors, dose response, biochemical, fluorescence polarization, cherry-picked samples (AID 588683)"}, "[23]": {"biological_target": "Dual specificity tyrosine-phosphorylation-regulated kinase 1A (Rattus norvegicus, UniProt Q63470)", "format": "biochemical, Homo sapiens"}}, "note": "Active and inactive are the calls of the source.", "data": [{"smiles": "COc1ccccc1CN(Cc1cc2c(C)ccc(C)c2nc1O)Cc1nnnn1Cc1ccco1", "values": [{"measurement": "IC50", "setting": "Protein skinhead-1", "result": "> 100 µM (inactive)"}, {"measurement": "EC50", "setting": "HEK293 [1]", "result": "> 59.6 µM (inactive)"}, {"measurement": "EC50", "setting": "HEK293 [2]", "result": "> 59.6 µM (inactive)"}]}, {"smiles": "C=CCn1c(O)nnc1Sc1ncc([N+](=O)[O-])s1", "values": [{"measurement": "IC50", "setting": "[3]", "result": "1.32 µM (active)"}, {"measurement": "IC50", "setting": "CHO", "result": "1.99 µM (active)"}, {"measurement": "IC50", "setting": "[4]", "result": "21.7 µM (inactive)"}, {"measurement": "AC50", "setting": "[5]", "result": "1.85 µM (active)"}]}, {"smiles": "CCN(CC(O)CON=C1c2ccccc2-c2ccccc21)S(=O)(=O)c1ccc(C)cc1", "note": "(stereo not given)", "values": [{"measurement": "EC50", "setting": "[6]", "result": "1.68 µM (active)"}, {"measurement": "AC50", "setting": "[7]", "result": "2.44 µM (active)"}, {"measurement": "AC50", "setting": "[8]", "result": "2.97 µM (active)"}, {"measurement": "AC50", "setting": "[9]", "result": "41.7 µM (active)"}, {"measurement": "AC50", "setting": "[10]", "result": "4.5 µM (active)"}, {"measurement": "AC50", "setting": "[11]", "result": "2.96 µM (active)"}, {"measurement": "EC50", "setting": "HEK293 [1]", "result": "> 59.6 µM (inactive)"}, {"measurement": "EC50", "setting": "HEK293 [2]", "result": "> 59.6 µM (inactive)"}, {"measurement": "EC50", "setting": "[12]", "result": "> 60 µM (not active)"}]}, {"smiles": "Cc1nn(C)c(Oc2cccc(Cl)c2)c1C=O", "values": [{"measurement": "AC50", "setting": "Cytochrome P450 1A2", "result": "11.2 µM (inconclusive)"}, {"measurement": "AC50", "setting": "Cytochrome P450 3A4", "result": "inconclusive"}, {"measurement": "AC50", "setting": "Cytochrome P450 2C9", "result": "0.891 µM (inconclusive)"}]}, {"smiles": "O=C(NCCN1CCCCC1)Nc1ccc([N+](=O)[O-])cc1", "values": [{"measurement": "IC50", "setting": "[13]", "result": "> 67.5 µM (inactive)"}, {"measurement": "IC50", "setting": "HEK293 [14]", "result": "> 67.5 µM (inactive)"}]}, {"smiles": "Cc1ccccc1OCC(=O)Nc1ccc2c(c1)OCCO2", "values": [{"measurement": "IC50", "setting": "[13]", "result": "> 67.5 µM (inactive)"}, {"measurement": "EC50", "setting": "[15]", "result": "4.75 µM (active)"}, {"measurement": "EC50", "setting": "[16]", "result": "51.8 µM (active)"}, {"measurement": "IC50", "setting": "HEK293 [14]", "result": "> 67.5 µM (inactive)"}, {"measurement": "EC50", "setting": "H4", "result": "75.2 µM (active)"}]}, {"smiles": "CC(=O)Nc1ccc(S(=O)(=O)NCCc2csc(-c3cccnc3)n2)cc1", "values": [{"measurement": "EC50", "setting": "[17]", "result": "0.162 µM (active)"}]}, {"smiles": "Cc1ccccc1Cn1c(=N)n(CC(=O)c2ccc([N+](=O)[O-])cc2)c2ccccc21", "values": [{"measurement": "EC50", "setting": "[18]", "result": "8.1 µM (active)"}, {"measurement": "EC50", "setting": "[19]", "result": "9.32 µM (active)"}, {"measurement": "IC50", "setting": "Vero [20]", "result": "> 25 µM (active)"}, {"measurement": "AC50", "setting": "[21]", "result": "5.63 µM (active)"}, {"measurement": "CC50", "setting": "Vero [22]", "result": "14 µM (active)"}, {"measurement": "EC50", "setting": "[17]", "result": "15.2 µM (inactive)"}]}, {"smiles": "O=C1c2ccccc2C(=O)c2c1ccc(O)c2O", "note": "[ATHRAQUINONES A]", "values": [{"measurement": "AC50", "setting": "Keap1/Nrf2", "result": "> 52 µM (inactive)"}, {"measurement": "AC50", "setting": "[23]", "result": "4.54 µM (active)"}]}]}
